Measured values published in patent US11076594B2, “Pyrazolone compound or salt thereof, preparation method therefor, herbicide composition and use thereof” (QINGDAO KINGAGROOT CHEMICAL COMPOUNDS CO., LTD., priority 2015, dated 2021).
Each block holds one compound with its values, some of them ahead of it.

Legend:
Type in all cases: in vivo
rice = assay: post-emergence stage experiment, crop (Table 1); conditions: post-emergence spray at 4-5 leaf stage, 250 g/ha active ingredient with 450 kg/ha water, rated after 3 weeks in greenhouse
Summary of the method: (§1)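 Post-emergence spray: compounds dissolved in acetone, Tween 80 added, diluted with water, applied to plants at 4-5 leaf stage. Plants kept 3 wk in greenhouse; activity scored as fresh-weight control rate.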

rice (japonica rice) = assay: transplanted rice safety evaluation; conditions: 125 g/ha ai; treated 5 days after transplantation; 21 days after treatment
Procedure: The activity level standard of harmful plant destruction (i.e. growth control rate) is as follows: In addition, the rice field soil that loaded into the 1/1,000,000 ha pot was leveled to keep water storage at 3-4 cm depth. The 3 leaf stage rice (japonica rice) was transplanted at 3 cm of transplanting depth the next day. The compound of the present invention was treated by the same way after 5 days of transplantation. The fertility condition of echinochloa, scirpus juncoides, bidens tripartite and sagittaria trifolia 14 days after the treatment of the compound of the invention and the fertility condition of rice 21 days after the treatment of the compound of the invention respectively with the naked eye.

wheat = assay: post-emergence stage experiment, crop (Table 1); conditions: post-emergence spray at 4-5 leaf stage, 250 g/ha active ingredient with 450 kg/ha water, rated after 3 weeks in greenhouse
Summary of the method: as §1

corn = assay: post-emergence stage experiment, crop (Table 1); conditions: post-emergence spray at 4-5 leaf stage, 250 g/ha active ingredient with 450 kg/ha water, rated after 3 weeks in greenhouse
Summary of the method: as §1

foxtail = assay: weed control effect in post-emergence stage (Table 1); design: key: Level 10: completely dead; Level 9: above 95% growth control rate; Level 8: above 90% growth control rate; Level 7: above 80% growth control rate; Level 6: above 70% growth control rate; Level 5: above 60% growth control rate; Level 4: above 50% growth control rate; Level 3: above 20% growth control rate; Level 2: 5%-20% growth control rate; Level 1: below 5% growth control rate; conditions: post-emergence spray at 4-5 leaf stage, 250 g/ha active ingredient with 450 kg/ha water, rated after 3 weeks in greenhouse
Summary of the method: as §1

crab grass = assay: as above; design: key: Level 10: completely dead; Level 9: above 95% growth control rate; Level 8: above 90% growth control rate; Level 7: above 80% growth control rate; Level 6: above 70% growth control rate; Level 5: above 60% growth control rate; Level 4: above 50% growth control rate; Level 3: above 20% growth control rate; Level 2: 5%-20% growth control rate; Level 1: below 5% growth control rate; conditions: post-emergence spray at 4-5 leaf stage, 250 g/ha active ingredient with 450 kg/ha water, rated after 3 weeks in greenhouse
Summary of the method: as §1

echinochloa [1] = assay: as above; design: key: Level 10: completely dead; Level 9: above 95% growth control rate; Level 8: above 90% growth control rate; Level 7: above 80% growth control rate; Level 6: above 70% growth control rate; Level 5: above 60% growth control rate; Level 4: above 50% growth control rate; Level 3: above 20% growth control rate; Level 2: 5%-20% growth control rate; Level 1: below 5% growth control rate; conditions: post-emergence spray at 4-5 leaf stage, 250 g/ha active ingredient with 450 kg/ha water, rated after 3 weeks in greenhouse
Summary of the method: as §1

bidens bipinnata = assay: as above; design: key: Level 10: completely dead; Level 9: above 95% growth control rate; Level 8: above 90% growth control rate; Level 7: above 80% growth control rate; Level 6: above 70% growth control rate; Level 5: above 60% growth control rate; Level 4: above 50% growth control rate; Level 3: above 20% growth control rate; Level 2: 5%-20% growth control rate; Level 1: below 5% growth control rate; conditions: post-emergence spray at 4-5 leaf stage, 250 g/ha active ingredient with 450 kg/ha water, rated after 3 weeks in greenhouse
Summary of the method: as §1

Indian mallow = assay: as above; design: key: Level 10: completely dead; Level 9: above 95% growth control rate; Level 8: above 90% growth control rate; Level 7: above 80% growth control rate; Level 6: above 70% growth control rate; Level 5: above 60% growth control rate; Level 4: above 50% growth control rate; Level 3: above 20% growth control rate; Level 2: 5%-20% growth control rate; Level 1: below 5% growth control rate; conditions: post-emergence spray at 4-5 leaf stage, 250 g/ha active ingredient with 450 kg/ha water, rated after 3 weeks in greenhouse
Summary of the method: as §1

rorippa indica = assay: as above; design: key: Level 10: completely dead; Level 9: above 95% growth control rate; Level 8: above 90% growth control rate; Level 7: above 80% growth control rate; Level 6: above 70% growth control rate; Level 5: above 60% growth control rate; Level 4: above 50% growth control rate; Level 3: above 20% growth control rate; Level 2: 5%-20% growth control rate; Level 1: below 5% growth control rate; conditions: post-emergence spray at 4-5 leaf stage, 250 g/ha active ingredient with 450 kg/ha water, rated after 3 weeks in greenhouse
Summary of the method: as §1

echinochloa [2] = assay: weed control effect evaluation in rice field; design: key: Level 10: completely dead; Level 9: above 95% growth control rate; Level 8: above 90% growth control rate; Level 7: above 80% growth control rate; Level 6: above 70% growth control rate; Level 5: above 60% growth control rate; Level 4: above 50% growth control rate; Level 3: above 20% growth control rate; Level 2: 5%-20% growth control rate; Level 1: below 5% growth control rate; conditions: 125 g/ha ai; rice field pot; 14 days after treatment; resistant to pyrazosulfuron-ethyl
Excerpt: (§2) The activity level standard of harmful plant destruction (i.e. growth control rate) is as follows: Rice field soil was loaded into a 1/1,000,000 ha pot. The seeds of echinochloa, scirpus juncoides, bidens tripartite and sagittaria trifolia were sowed and gently covered with soil, then left to stand still in greenhouse in the state of 0.5-1 cm of water storage. The tuber of sagittaria trifolia was planted in the next day or 2 days later. It was kept at 3-4 cm of water storage thereafter. The weeds were treated by dripping the WP or SC water diluents prepared according to the common preparation method of the compounds of the present invention with pipette homogeneously to achieve specified effective amount when echinochloa, scirpus juncoides and bidens tripartite reached 0.5 leaf stage and sagittaria trifolia reached the time point of primary leaf stage. The fertility condition of echinochloa, scirpus juncoides, bidens tripartite and sagittaria trifolia 14 days after the treatment of the compound of the invention and the fertility condition of rice 21 days after the treatment of the compound of the invention respectively with the naked eye.

sagittaria trifolia = assay: weed control effect evaluation in rice field; design: key: Level 10: completely dead; Level 9: above 95% growth control rate; Level 8: above 90% growth control rate; Level 7: above 80% growth control rate; Level 6: above 70% growth control rate; Level 5: above 60% growth control rate; Level 4: above 50% growth control rate; Level 3: above 20% growth control rate; Level 2: 5%-20% growth control rate; Level 1: below 5% growth control rate; conditions: 125 g/ha ai; rice field pot; 14 days after treatment; resistant to pyrazosulfuron-ethyl
Excerpt: as §2

bidens tripartite = assay: weed control effect evaluation in rice field; design: key: Level 10: completely dead; Level 9: above 95% growth control rate; Level 8: above 90% growth control rate; Level 7: above 80% growth control rate; Level 6: above 70% growth control rate; Level 5: above 60% growth control rate; Level 4: above 50% growth control rate; Level 3: above 20% growth control rate; Level 2: 5%-20% growth control rate; Level 1: below 5% growth control rate; conditions: 125 g/ha ai; rice field pot; 14 days after treatment; resistant to pyrazosulfuron-ethyl
Excerpt: as §2

scirpus juncoides = assay: weed control effect evaluation in rice field; design: key: Level 10: completely dead; Level 9: above 95% growth control rate; Level 8: above 90% growth control rate; Level 7: above 80% growth control rate; Level 6: above 70% growth control rate; Level 5: above 60% growth control rate; Level 4: above 50% growth control rate; Level 3: above 20% growth control rate; Level 2: 5%-20% growth control rate; Level 1: below 5% growth control rate; conditions: 125 g/ha ai; rice field pot; 14 days after treatment; resistant to pyrazosulfuron-ethyl
Excerpt: as §2

Structure (SMILES): Cn1nc(C2CC2)c(C(=O)c2ccc(C(F)(F)F)c(N3CCCC3=O)c2Cl)c1O [Compound 025]
effect on crop, Rice (level) (rice): 6 (Level 6: above 70% growth control rate)
Rice (activity level, transplanted rice safety) (rice (japonica rice)): 0
effect on crop, Wheat (level) (wheat): 3 (Level 3: above 20% growth control rate)
effect on crop, Corn (level) (corn): 4 (Level 4: above 50% growth control rate)
weed control effect, Green foxtail (level) (foxtail): 10
weed control effect, Crab grass (level) (crab grass): 6 (Level 6: above 70% growth control rate)
weed control effect, Echinochloa (level) (echinochloa [1]): 6 (Level 6: above 70% growth control rate)
weed control effect, Bidens bipinnata (level) (bidens bipinnata): 8 (Level 8: above 90% growth control rate)
weed control effect, Indian mallow (level) (Indian mallow): 10
weed control effect, Rorippa indica (level) (rorippa indica): 10
Echinochloa weed control effect (activity level) (echinochloa [2]): 9 (Level 9: above 95% growth control rate)
Sagittaria trifolia weed control effect (activity level) (sagittaria trifolia): 10
Bidens tripartite weed control effect (activity level) (bidens tripartite): 8 (Level 8: above 90% growth control rate)
Scirpus juncoides weed control effect (activity level) (scirpus juncoides): 10

effect on crop, Wheat (level) (wheat): 0
Structure (SMILES): Cc1nn(C)c(O)c1C(=O)c1ccc(C(F)(F)F)c(N2CCCCCC2=O)c1Cl [Compound 054]
effect on crop, Rice (level) (rice): 4 (Level 4: above 50% growth control rate)
Rice (activity level, transplanted rice safety) (rice (japonica rice)): 2 (Level 2: 5%-20% growth control rate)
weed control effect, Green foxtail (level) (foxtail): 5 (Level 5: above 60% growth control rate)
weed control effect, Crab grass (level) (crab grass): 1 (Level 1: below 5% growth control rate)
weed control effect, Echinochloa (level) (echinochloa [1]): 6 (Level 6: above 70% growth control rate)
weed control effect, Bidens bipinnata (level) (bidens bipinnata): 9 (Level 9: above 95% growth control rate)
weed control effect, Indian mallow (level) (Indian mallow): 9 (Level 9: above 95% growth control rate)
weed control effect, Rorippa indica (level) (rorippa indica): 9 (Level 9: above 95% growth control rate)
Echinochloa weed control effect (activity level) (echinochloa [2]): 8 (Level 8: above 90% growth control rate)
Sagittaria trifolia weed control effect (activity level) (sagittaria trifolia): 9 (Level 9: above 95% growth control rate)
Bidens tripartite weed control effect (activity level) (bidens tripartite): 9 (Level 9: above 95% growth control rate)
Scirpus juncoides weed control effect (activity level) (scirpus juncoides): 9 (Level 9: above 95% growth control rate)

Structure (SMILES): CCOc1c(C(=O)Oc2c(C(=O)c3ccc(C(F)(F)F)c(-n4cccn4)c3Cl)cnn2C)cnn1C [Compound 065]
effect on crop, Rice (level) (rice): 3 (Level 3: above 20% growth control rate)
Rice (activity level, transplanted rice safety) (rice (japonica rice)): 3 (Level 3: above 20% growth control rate)
effect on crop, Wheat (level) (wheat): 3 (Level 3: above 20% growth control rate)
effect on crop, Corn (level) (corn): 9 (Level 9: above 95% growth control rate)
weed control effect, Green foxtail (level) (foxtail): 10
weed control effect, Crab grass (level) (crab grass): 8 (Level 8: above 90% growth control rate)
weed control effect, Echinochloa (level) (echinochloa [1]): 7 (Level 7: above 80% growth control rate)
weed control effect, Bidens bipinnata (level) (bidens bipinnata): 7 (Level 7: above 80% growth control rate)
weed control effect, Indian mallow (level) (Indian mallow): 9 (Level 9: above 95% growth control rate)
weed control effect, Rorippa indica (level) (rorippa indica): 9 (Level 9: above 95% growth control rate)
Echinochloa weed control effect (activity level) (echinochloa [2]): 9 (Level 9: above 95% growth control rate)
Sagittaria trifolia weed control effect (activity level) (sagittaria trifolia): 9 (Level 9: above 95% growth control rate)
Bidens tripartite weed control effect (activity level) (bidens tripartite): 8 (Level 8: above 90% growth control rate)
Scirpus juncoides weed control effect (activity level) (scirpus juncoides): 9 (Level 9: above 95% growth control rate)

Structure (SMILES): Cc1nn(C)c(O)c1C(=O)c1ccc(C(F)(F)F)c(-n2cccn2)c1Cl [Compound 068]
effect on crop, Rice (level) (rice): 5 (Level 5: above 60% growth control rate)
Rice (activity level, transplanted rice safety) (rice (japonica rice)): 1 (Level 1: below 5% growth control rate)
effect on crop, Wheat (level) (wheat): 3 (Level 3: above 20% growth control rate)
weed control effect, Green foxtail (level) (foxtail): 10
weed control effect, Crab grass (level) (crab grass): 5 (Level 5: above 60% growth control rate)
weed control effect, Echinochloa (level) (echinochloa [1]): 10
weed control effect, Bidens bipinnata (level) (bidens bipinnata): 10
weed control effect, Indian mallow (level) (Indian mallow): 10
weed control effect, Rorippa indica (level) (rorippa indica): 9 (Level 9: above 95% growth control rate)
Echinochloa weed control effect (activity level) (echinochloa [2]): 10
Sagittaria trifolia weed control effect (activity level) (sagittaria trifolia): 10
Bidens tripartite weed control effect (activity level) (bidens tripartite): 10
Scirpus juncoides weed control effect (activity level) (scirpus juncoides): 9 (Level 9: above 95% growth control rate)

effect on crop, Wheat (level) (wheat): 0
Structure (SMILES): Cc1ccn(-c2c(C(F)(F)F)ccc(C(=O)c3c(C)nn(C)c3O)c2Cl)n1 [Compound 077]
effect on crop, Rice (level) (rice): 6 (Level 6: above 70% growth control rate)
Rice (activity level, transplanted rice safety) (rice (japonica rice)): 1 (Level 1: below 5% growth control rate)
weed control effect, Green foxtail (level) (foxtail): 7 (Level 7: above 80% growth control rate)
weed control effect, Crab grass (level) (crab grass): 4 (Level 4: above 50% growth control rate)
weed control effect, Echinochloa (level) (echinochloa [1]): 10
weed control effect, Bidens bipinnata (level) (bidens bipinnata): 9 (Level 9: above 95% growth control rate)
weed control effect, Indian mallow (level) (Indian mallow): 10
weed control effect, Rorippa indica (level) (rorippa indica): 10
Echinochloa weed control effect (activity level) (echinochloa [2]): 10
Sagittaria trifolia weed control effect (activity level) (sagittaria trifolia): 10
Bidens tripartite weed control effect (activity level) (bidens tripartite): 9 (Level 9: above 95% growth control rate)
Scirpus juncoides weed control effect (activity level) (scirpus juncoides): 10
